Experimental findings from patent US9340590B2 (priority 2011, dated 2016) are described below.

Where two headings read alike, the source gives them in different places. Positions of bridges follow the written chain, without caps; N, C: chain ends. Non-standard residues stand in square brackets, D forms with d. Residues, ends and D or L forms follow the SMILES beside them. Lys(Me2) = CN(C)CCCC[C@H](N)C(=O)O

For the experiment, the target named is hNav1.7 (Homo sapiens, UniProt Q15858). As to the kind of experiment: cell-based. The format is cell-based. To be noted: read-out: IWQ Use Nav1.7.
Chain of hNav1.7 (Q15858 whole entry, looked up): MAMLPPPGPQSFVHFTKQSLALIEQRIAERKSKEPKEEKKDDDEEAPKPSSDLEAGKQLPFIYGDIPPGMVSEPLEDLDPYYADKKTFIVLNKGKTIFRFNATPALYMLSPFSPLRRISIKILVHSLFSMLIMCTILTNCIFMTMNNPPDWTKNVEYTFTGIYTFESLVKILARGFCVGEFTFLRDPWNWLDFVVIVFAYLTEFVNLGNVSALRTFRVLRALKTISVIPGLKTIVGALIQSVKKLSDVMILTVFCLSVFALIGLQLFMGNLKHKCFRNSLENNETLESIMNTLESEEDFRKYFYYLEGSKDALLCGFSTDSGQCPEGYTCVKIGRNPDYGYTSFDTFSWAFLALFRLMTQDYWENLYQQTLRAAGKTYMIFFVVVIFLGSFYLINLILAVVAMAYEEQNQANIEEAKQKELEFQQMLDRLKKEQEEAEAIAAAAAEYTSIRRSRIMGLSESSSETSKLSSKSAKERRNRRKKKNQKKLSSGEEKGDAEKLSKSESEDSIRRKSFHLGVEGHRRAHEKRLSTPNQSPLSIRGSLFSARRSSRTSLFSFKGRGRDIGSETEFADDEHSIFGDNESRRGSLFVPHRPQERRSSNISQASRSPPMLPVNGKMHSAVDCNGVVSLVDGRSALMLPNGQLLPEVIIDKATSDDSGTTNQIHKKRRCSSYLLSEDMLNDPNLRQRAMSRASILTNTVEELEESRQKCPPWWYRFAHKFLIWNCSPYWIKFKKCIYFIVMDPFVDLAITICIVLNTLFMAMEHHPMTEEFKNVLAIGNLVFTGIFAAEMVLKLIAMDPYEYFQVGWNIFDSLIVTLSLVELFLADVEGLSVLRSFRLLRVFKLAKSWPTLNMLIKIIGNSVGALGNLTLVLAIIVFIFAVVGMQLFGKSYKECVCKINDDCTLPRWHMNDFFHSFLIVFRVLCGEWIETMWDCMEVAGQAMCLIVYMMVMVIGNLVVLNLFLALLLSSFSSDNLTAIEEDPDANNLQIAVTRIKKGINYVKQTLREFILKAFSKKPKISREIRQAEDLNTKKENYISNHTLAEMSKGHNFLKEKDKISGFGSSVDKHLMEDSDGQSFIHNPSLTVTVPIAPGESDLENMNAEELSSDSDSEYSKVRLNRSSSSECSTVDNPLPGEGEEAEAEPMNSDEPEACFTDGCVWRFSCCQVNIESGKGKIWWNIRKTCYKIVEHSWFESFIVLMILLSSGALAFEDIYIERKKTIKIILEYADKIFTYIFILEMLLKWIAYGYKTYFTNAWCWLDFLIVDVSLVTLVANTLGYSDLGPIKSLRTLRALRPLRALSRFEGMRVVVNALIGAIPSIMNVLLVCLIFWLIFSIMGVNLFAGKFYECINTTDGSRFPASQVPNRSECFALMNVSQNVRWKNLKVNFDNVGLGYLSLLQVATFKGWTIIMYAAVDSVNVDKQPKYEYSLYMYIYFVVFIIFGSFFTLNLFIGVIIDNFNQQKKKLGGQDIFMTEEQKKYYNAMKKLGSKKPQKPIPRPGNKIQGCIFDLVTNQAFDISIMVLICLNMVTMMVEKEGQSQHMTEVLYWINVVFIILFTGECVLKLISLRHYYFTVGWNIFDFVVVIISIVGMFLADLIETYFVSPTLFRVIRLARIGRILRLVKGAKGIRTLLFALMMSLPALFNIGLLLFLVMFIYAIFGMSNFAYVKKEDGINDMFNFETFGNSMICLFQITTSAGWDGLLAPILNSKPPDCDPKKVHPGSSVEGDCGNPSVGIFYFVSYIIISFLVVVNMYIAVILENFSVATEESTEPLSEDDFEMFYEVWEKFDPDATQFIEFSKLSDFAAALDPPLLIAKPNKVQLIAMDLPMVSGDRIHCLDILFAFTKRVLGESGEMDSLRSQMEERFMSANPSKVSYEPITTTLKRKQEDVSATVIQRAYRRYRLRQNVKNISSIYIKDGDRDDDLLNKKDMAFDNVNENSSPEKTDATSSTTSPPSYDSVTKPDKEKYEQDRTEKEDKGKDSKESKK

In the case of `CC[C@H](C)[C@@H]1NC(=O)[C@@H]2CSSC[C@@H]3NC(=O)[C@H](C(C)C)NC(=O)[C@H](CC(C)C)NC(=O)[C@H](CC(N)=O)NC(=O)[C@@H]4CCCN4C(=O)[C@H](CCCNC(=N)N)NC(=O)[C@H](CSSC[C@H](NC(=O)[C@@H](N)CC(=O)O)C(=O)N[C@@H](CC(C)C)C(=O)NCC(=O)N[C@@H](Cc4ccccc4)C(=O)N[C@@H](CCSC)C(=O)N[C@@H](C)C(=O)N[C@@H](CCCCN)C(=O)N2)NC(=O)[C@H](CSSC[C@@H](C(=O)N[C@@H](CCCCN)C(=O)N[C@@H](Cc2ccc(O)cc2)C(=O)N[C@H](C(=O)N[C@@H](Cc2ccccc2)C(N)=O)C(C)C)NC(=O)[C@H](Cc2c[nH]c4ccccc24)NC(=O)[C@H](CCCCN)NC(=O)[C@H](Cc2c[nH]cn2)NC(=O)[C@H]([C@@H](C)O)NC(=O)[C@H](CCCNC(=N)N)NC(=O)[C@H](CO)NC3=O)NC(=O)[C@H](CCCCN)NC(=O)[C@H](CC(=O)O)NC(=O)[C@H](CC(N)=O)NC(=O)[C@H](CC(=O)O)NC(=O)[C@@H]2CCCN2C1=O` [[Ala7]GpTx-1(1-34)] (H-DCLGFMAKCIPDNDKCCRPNLVCSRTHKWCKYVF-NH2; disulfide 2-17, 9-23, 16-30), where the note is “IonWorks Quattro, use-dependent block, hNav1.7”, the IC50 is 940 nM.
Turning to `CC[C@H](C)[C@@H]1NC(=O)[C@@H]2CSSC[C@@H]3NC(=O)[C@H](C(C)C)NC(=O)[C@H](CC(C)C)NC(=O)[C@H](CC(N)=O)NC(=O)[C@@H]4CCCN4C(=O)[C@H](CCCNC(=N)N)NC(=O)[C@H](CSSC[C@H](NC(=O)[C@@H](N)CC(=O)O)C(=O)N[C@@H](CC(C)C)C(=O)NCC(=O)N[C@@H](Cc4ccccc4)C(=O)N[C@@H](CCSC)C(=O)N[C@@H](CCCNC(=N)N)C(=O)N[C@@H](CCCCN)C(=O)N2)NC(=O)[C@H](CSSC[C@@H](C(=O)N[C@@H](CCCCN)C(=O)N[C@@H](Cc2ccc(O)cc2)C(=O)N[C@H](C(=O)N[C@@H](Cc2ccccc2)C(N)=O)C(C)C)NC(=O)[C@H](Cc2c[nH]c4ccccc24)NC(=O)[C@H](CCCCN)NC(=O)[C@H](Cc2c[nH]cn2)NC(=O)[C@H]([C@@H](C)O)NC(=O)[C@H](CCCNC(=N)N)NC(=O)[C@H](C)NC3=O)NC(=O)[C@H](CCCCN)NC(=O)[C@H](CC(=O)O)NC(=O)[C@H](CC(N)=O)NC(=O)[C@H](CC(=O)O)NC(=O)[C@@H]2CCCN2C1=O` [compound 142] (H-DCLGFMRKCIPDNDKCCRPNLVCARTHKWCKYVF-NH2; disulfide 2-17, 9-23, 16-30), the IC50 (IonWorks Quattro, Use) is 470 nM.
The same measure, in the same setting: the value for `CC[C@H](C)[C@@H]1NC(=O)[C@@H]2CSSC[C@@H]3NC(=O)[C@H](C(C)C)NC(=O)[C@H](CC(C)C)NC(=O)[C@H](CC(N)=O)NC(=O)[C@@H]4CCCN4C(=O)[C@H](CCCNC(=N)N)NC(=O)[C@H](CSSC[C@H](NC(=O)[C@@H](N)CC(=O)O)C(=O)N[C@@H](CC(C)C)C(=O)NCC(=O)N[C@@H](Cc4ccccc4)C(=O)N[C@@H](CCSC)C(=O)N[C@@H](CCCNC(=N)N)C(=O)N[C@@H](CCCCN)C(=O)N2)NC(=O)[C@H](CSSC[C@@H](C(=O)N[C@@H](CCCCN)C(=O)N[C@@H](Cc2ccc(O)cc2)C(=O)N[C@H](C(=O)N[C@@H](Cc2ccccc2)C(N)=O)C(C)C)NC(=O)[C@H](Cc2c[nH]c4ccccc24)NC(=O)[C@H](CCCCN)NC(=O)[C@H](Cc2c[nH]cn2)NC(=O)[C@H]([C@@H](C)O)NC(=O)[C@H](CCCNC(=N)N)NC(=O)[C@H](CO)NC3=O)NC(=O)[C@H](CCCCN)NC(=O)[C@H](CC(=O)O)NC(=O)[C@H](CC(N)=O)NC(=O)[C@H](C)NC(=O)[C@@H]2CCCN2C1=O` [compound 4] (H-DCLGFMRKCIPANDKCCRPNLVCSRTHKWCKYVF-NH2; disulfide 2-17, 9-23, 16-30) was 120 nM.
Still for that read-out and setting: the value for `CSCC[C@@H]1NC(=O)[C@H](Cc2ccccc2)NC(=O)CNC(=O)[C@H](CC(C)C)NC(=O)[C@@H](NC(=O)[C@@H](N)CC(=O)O)CSSC[C@@H]2NC(=O)[C@@H]3CSSC[C@@H](C(=O)N[C@@H](CCCCN)C(=O)N[C@@H](Cc4ccc(O)cc4)C(=O)N[C@H](C(=O)N[C@@H](Cc4ccccc4)C(N)=O)C(C)C)NC(=O)[C@H](Cc4c[nH]c5ccccc45)NC(=O)[C@H](CCCCN)NC(=O)[C@H](Cc4c[nH]cn4)NC(=O)[C@H]([C@@H](C)O)NC(=O)[C@H](CCCNC(=N)N)NC(=O)[C@H](CO)NC(=O)[C@H](CSSC[C@H](NC(=O)[C@H](CCCCN)NC(=O)[C@H](CCCNC(=N)N)NC1=O)C(=O)N[C@@H]([C@@H](C)O)C(=O)N1CCC[C@H]1C(=O)N[C@@H](CC(=O)O)C(=O)N[C@@H](CC(N)=O)C(=O)N[C@@H](CC(=O)O)C(=O)N[C@@H](CCCCN)C(=O)N3)NC(=O)[C@H](C(C)C)NC(=O)[C@H](CC(C)C)NC(=O)[C@H](CC(N)=O)NC(=O)[C@@H]1CCCN1C(=O)[C@H](CCCNC(=N)N)NC2=O` [compound 309] (H-DCLGFMRKCTPDNDKCCRPNLVCSRTHKWCKYVF-NH2; disulfide 2-17, 9-23, 16-30) was 100 nM; that for `CC[C@H](C)[C@@H]1NC(=O)[C@@H]2CSSC[C@@H]3NC(=O)[C@H](C)NC(=O)[C@H](CC(C)C)NC(=O)[C@H](CC(N)=O)NC(=O)[C@@H]4CCCN4C(=O)[C@H](CCCNC(=N)N)NC(=O)[C@H](CSSC[C@H](NC(=O)[C@@H](N)CC(=O)O)C(=O)N[C@@H](CC(C)C)C(=O)NCC(=O)N[C@@H](Cc4ccccc4)C(=O)N[C@@H](CCSC)C(=O)N[C@@H](CCCNC(=N)N)C(=O)N[C@@H](CCCCN)C(=O)N2)NC(=O)[C@H](CSSC[C@@H](C(=O)N[C@@H](CCCCN)C(=O)N[C@@H](Cc2ccc(O)cc2)C(=O)N[C@H](C(=O)N[C@@H](Cc2ccccc2)C(N)=O)C(C)C)NC(=O)[C@H](Cc2c[nH]c4ccccc24)NC(=O)[C@H](CCCCN)NC(=O)[C@H](Cc2c[nH]cn2)NC(=O)[C@H]([C@@H](C)O)NC(=O)[C@H](CCCNC(=N)N)NC(=O)[C@H](CO)NC3=O)NC(=O)[C@H](CCCCN)NC(=O)[C@H](CC(=O)O)NC(=O)[C@H](CC(N)=O)NC(=O)[C@H](CC(=O)O)NC(=O)[C@@H]2CCCN2C1=O` [compound 8] (H-DCLGFMRKCIPDNDKCCRPNLACSRTHKWCKYVF-NH2; disulfide 2-17, 9-23, 16-30) was 380 nM.
Regarding `CC[C@H](C)[C@@H]1NC(=O)[C@@H]2CSSC[C@@H]3NC(=O)[C@H](C(C)C)NC(=O)[C@H](CC(C)C)NC(=O)[C@H](CC(N)=O)NC(=O)[C@@H]4CCCN4C(=O)[C@H](CCCNC(=N)N)NC(=O)[C@H](CSSC[C@H](NC(=O)[C@@H](N)CC(=O)O)C(=O)N[C@@H](CC(C)C)C(=O)N[C@@H](Cc4c[nH]c5ccccc45)C(=O)N[C@@H](Cc4ccccc4)C(=O)N[C@@H](CCSC)C(=O)N[C@@H](CCCNC(=N)N)C(=O)N[C@@H](CCCCN)C(=O)N2)NC(=O)[C@H](CSSC[C@@H](C(=O)N[C@@H](CCCCN)C(=O)N[C@@H](Cc2ccc(O)cc2)C(=O)N[C@H](C(=O)N[C@@H](Cc2ccccc2)C(N)=O)C(C)C)NC(=O)[C@H](Cc2c[nH]c4ccccc24)NC(=O)[C@H](CCCCN)NC(=O)[C@H](Cc2c[nH]cn2)NC(=O)[C@H]([C@@H](C)O)NC(=O)[C@H](CCCNC(=N)N)NC(=O)[C@H](CO)NC3=O)NC(=O)[C@H](CCCCN)NC(=O)[C@H](CC(=O)O)NC(=O)[C@H](CC(N)=O)NC(=O)[C@H](CC(=O)O)NC(=O)[C@@H]2CCCN2C1=O` [SEQ ID NO: 169] (H-DCLWFMRKCIPDNDKCCRPNLVCSRTHKWCKYVF-NH2; disulfide 2-17, 9-23, 16-30), the IC50 is 50 nM.
Consider `CC[C@H](C)[C@@H]1NC(=O)[C@@H]2CSSC[C@@H]3NC(=O)[C@H](C(C)C)NC(=O)[C@H](CC(C)C)NC(=O)[C@H](CC(N)=O)NC(=O)[C@@H]4CCCN4C(=O)[C@H](CCCNC(=N)N)NC(=O)[C@H](CSSC[C@H](NC(=O)[C@@H](N)CCCCN)C(=O)N[C@@H](CC(C)C)C(=O)NCC(=O)N[C@@H](Cc4ccccc4)C(=O)N[C@@H](CCSC)C(=O)N[C@@H](CCCNC(=N)N)C(=O)N[C@@H](CCCCN)C(=O)N2)NC(=O)[C@H](CSSC[C@@H](C(=O)N[C@@H](CCCCN)C(=O)N[C@@H](Cc2ccc(O)cc2)C(=O)N[C@H](C(=O)N[C@@H](Cc2ccccc2)C(N)=O)C(C)C)NC(=O)[C@H](Cc2c[nH]c4ccccc24)NC(=O)[C@H](CCCCN)NC(=O)[C@H](Cc2c[nH]cn2)NC(=O)[C@H]([C@@H](C)O)NC(=O)[C@H](CCCNC(=N)N)NC(=O)[C@H](CO)NC3=O)NC(=O)[C@H](CCCCN)NC(=O)[C@H](CC(=O)O)NC(=O)[C@H](CC(N)=O)NC(=O)[C@H](CC(=O)O)NC(=O)[C@@H]2CCCN2C1=O` [SEQ ID NO: 37] (H-KCLGFMRKCIPDNDKCCRPNLVCSRTHKWCKYVF-NH2; disulfide 2-17, 9-23, 16-30), for which the IC50 (IonWorks Quattro, clamped to −110 mV, depolarized to −10 mV, 5 min after compound, n=2) was 150 nM.
As for `CC[C@H](C)[C@@H]1NC(=O)[C@@H]2CSSC[C@@H]3NC(=O)[C@H](C(C)C)NC(=O)[C@H](CC(C)C)NC(=O)[C@H](CC(N)=O)NC(=O)[C@@H]4CCCN4C(=O)[C@H](CCCCN(C)C)NC(=O)[C@H](CSSC[C@H](NC(=O)[C@@H](N)CC(=O)O)C(=O)N[C@@H](CC(C)C)C(=O)NCC(=O)N[C@@H](Cc4ccccc4)C(=O)N[C@@H](CCSC)C(=O)N[C@@H](CCCNC(=N)N)C(=O)N[C@@H](CCCCN)C(=O)N2)NC(=O)[C@H](CSSC[C@@H](C(=O)N[C@@H](CCCCN)C(=O)N[C@@H](Cc2ccc(O)cc2)C(=O)N[C@H](C(=O)N[C@@H](Cc2ccccc2)C(N)=O)C(C)C)NC(=O)[C@H](Cc2c[nH]c4ccccc24)NC(=O)[C@H](CCCCN)NC(=O)[C@H](Cc2c[nH]cn2)NC(=O)[C@H]([C@@H](C)O)NC(=O)[C@H](CCCNC(=N)N)NC(=O)[C@H](CO)NC3=O)NC(=O)[C@H](CCCCN)NC(=O)[C@H](CC(=O)O)NC(=O)[C@H](CC(N)=O)NC(=O)[C@H](CC(=O)O)NC(=O)[C@@H]2CCCN2C1=O` [compound 314] (H-DCLGFMRKCIPDNDKCC[Lys(Me2)]PNLVCSRTHKWCKYVF-NH2; disulfide 2-17, 9-23, 16-30), where the note is “IonWorks Quattro, Use”, the IC50 amounted to 210 nM.
